Assay results from patent US20020137929A1, “1 - (3-heterocyclylphenyl) isothiourea, -isourea, -guanidine and -amidine herbicidal agents” (Intellectual Property Department, BASF Aktiengesellschaft, priority 1998, published 2002).

Legend:
[1] = test system: TRZAWR (Wheat, Winter, cv Riband); experiment: Postemergence herbicidal evaluation; type: in vivo, Triticum aestivum; settings: postemergence
In short: (§1)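 Compound is applied as a foliar spray to seedlings about two weeks old, formulated in equal parts acetone and water with 0.5% TWEEN 20 and delivered at 40 psi to give about 0.0156–0.500 kg per hectare. Injury is rated visually 0–9 after four to five weeks.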

[2] = test system: IPOHE (Morningglory, Ivyleaf); experiment: Preemergence herbicidal evaluation; type: in vivo, Ipomoea hederacea; settings: rated 4-5 weeks after treatment
In short: (§2)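 Rating at 4–5 wk post-spray on a 0–9 visual scale vs control. Application: aqueous acetone, ~0.0156–0.500 kg/ha, to soil surface after seeding, preemergence.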

[3] = test system: GALAP (Galium); experiment: Preemergence herbicidal evaluation; type: in vivo, Galium aparine; settings: rated 4-5 weeks after treatment
In short: as §2

[4] = test system: ECHORC (Watergrass (Calif.)); experiment: Postemergence weed control under flooded paddy conditions; type: in vivo, Echinochloa oryzoides; settings: postemergence weeds, rated 3 to 4 weeks after treatment
In short: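 Weeds 3 to 5 cm tall and rice seedlings at the 1.5 to 2.5 leaf stage were flooded, with water held 1.5 to 3 cm above the soil. Compounds in 50/50 v/v aqueous/acetone went into the flood water at about 0.0313 to 0.500 kg/ha. Visual 0-9 ratings versus control were made 3 to 4 weeks later.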

[5] = test system: ECHCG (Barnyardgrass); experiment: Postemergence herbicidal evaluation; type: in vivo, Echinochloa crus-galli; settings: postemergence
In short: as §1

[6] = test system: CHEAL (Lambsquarters, Common); experiment: Preemergence herbicidal evaluation; type: in vivo, Chenopodium album; settings: rated 4-5 weeks after treatment
In short: as §2

[7] = test system: CASOB (Sicklepod); experiment: Preemergence herbicidal evaluation; type: in vivo, Cassia obtusifolia; settings: rated 4-5 weeks after treatment
In short: as §2

[8] = test system: SETVI (Foxtail, Green); experiment: Postemergence herbicidal evaluation; type: in vivo, Setaria viridis; settings: postemergence
In short: as §1

[9] = test system: ECHCG (Barnyardgrass); experiment: Preemergence herbicidal evaluation; type: in vivo, Echinochloa crus-galli; settings: rated 4-5 weeks after treatment
In short: as §2

[10] = test system: AMBEL (Ragweed, Common); experiment: Postemergence herbicidal evaluation; type: in vivo, Ambrosia artemisifolia; settings: postemergence
In short: as §1

[11] = test system: IPOHE (Morningglory, Ivyleaf); experiment: Postemergence herbicidal evaluation; type: in vivo, Ipomoea hederacea; settings: postemergence
In short: as §1

[12] = test system: ZEAMX (Corn, Field); experiment: Preemergence herbicidal evaluation; type: in vivo, Zea mays; settings: rated 4-5 weeks after treatment
In short: as §2

[13] = test system: ABUTH (Velvetleaf); experiment: Postemergence herbicidal evaluation; type: in vivo, Abutilon theophrasti; settings: postemergence
In short: as §1

[14] = test system: GLXMAW (Soybean, Williams); experiment: Postemergence herbicidal evaluation; type: in vivo, Glycine max, (L.) Merr. cv Williams; settings: postemergence
In short: as §1

Compound: C#CCOC(=O)CC1SC(=Nc2cc(-n3c(=O)cc(C(F)(F)F)n(C)c3=O)c(F)cc2Cl)N(CC=C)C1=O (stereo not shown) [Compound 67, 2-Propynyl 3-allyl-2-{{2-chloro-5-[3,6-dihydro-3-methyl-2,6-dioxo-4-(trifluoromethyl)-1(2H)-pyrimidinyl]-4-fluorophenyl}imino}-4-oxo-5-thiazolidineacetate]
- TRZAWR herbicidal rating ([1]; rate 0.0158 kg/ha): 5.0
- TRZAWR herbicidal rating ([1]; rate 0.0315 kg/ha): 6.0
- TRZAWR herbicidal rating ([1]; rate 0.0630 kg/ha): 6.5
- Preemergence herbicidal rating IPOHE ([2]; rate 0.0156 kg/ha): 0.0
- Preemergence herbicidal rating IPOHE ([2]; rate 0.0313 kg/ha): 0.0
- Preemergence herbicidal rating IPOHE ([2]; rate 0.0625 kg/ha): 2.0
- Preemergence herbicidal rating IPOHE ([2]; rate 0.1250 kg/ha): 3.0
- Preemergence herbicidal rating IPOHE ([2]; rate 0.2500 kg/ha): 6.0
- Preemergence herbicidal rating GALAP ([3]; rate 0.0156 kg/ha): 0.0
- Preemergence herbicidal rating GALAP ([3]; rate 0.0313 kg/ha): 0.0
- Preemergence herbicidal rating GALAP ([3]; rate 0.0625 kg/ha): 0.0
- Preemergence herbicidal rating GALAP ([3]; rate 0.1250 kg/ha): 1.0
- Preemergence herbicidal rating GALAP ([3]; rate 0.2500 kg/ha): 0.0
- Herbicidal rating ECHORC ([4]; Rate 0.0313 kg/ha): 0.0
- Herbicidal rating ECHORC ([4]; Rate 0.0625 kg/ha): 4.0
- Herbicidal rating ECHORC ([4]; Rate 0.1250 kg/ha): 5.0
- Herbicidal rating ECHORC ([4]; Rate 0.2500 kg/ha): 5.0
- ECHCG herbicidal rating ([5]; rate 0.0158 kg/ha): 3.0
- ECHCG herbicidal rating ([5]; rate 0.0315 kg/ha): 6.0
- ECHCG herbicidal rating ([5]; rate 0.0630 kg/ha): 7.0
- Preemergence herbicidal rating CHEAL ([6]; rate 0.0156 kg/ha): 2.0
- Preemergence herbicidal rating CHEAL ([6]; rate 0.0313 kg/ha): 9.0
- Preemergence herbicidal rating CHEAL ([6]; rate 0.0625 kg/ha): 9.0
- Preemergence herbicidal rating CHEAL ([6]; rate 0.1250 kg/ha): 9.0
- Preemergence herbicidal rating CHEAL ([6]; rate 0.2500 kg/ha): 9.0
- Preemergence herbicidal rating CASOB ([7]; rate 0.0156 kg/ha): 0.0
- Preemergence herbicidal rating CASOB ([7]; rate 0.0313 kg/ha): 0.0
- Preemergence herbicidal rating CASOB ([7]; rate 0.0625 kg/ha): 0.0
- Preemergence herbicidal rating CASOB ([7]; rate 0.1250 kg/ha): 2.0
- Preemergence herbicidal rating CASOB ([7]; rate 0.2500 kg/ha): 2.0
- SETVI herbicidal rating ([8]; rate 0.0158 kg/ha): 9.0
- SETVI herbicidal rating ([8]; rate 0.0315 kg/ha): 9.0
- SETVI herbicidal rating ([8]; rate 0.0630 kg/ha): 9.0
- Preemergence herbicidal rating ECHCG ([9]; rate 0.0156 kg/ha): 0.0
- Preemergence herbicidal rating ECHCG ([9]; rate 0.0313 kg/ha): 0.0
- Preemergence herbicidal rating ECHCG ([9]; rate 0.0625 kg/ha): 0.0
- Preemergence herbicidal rating ECHCG ([9]; rate 0.1250 kg/ha): 1.0
- Preemergence herbicidal rating ECHCG ([9]; rate 0.2500 kg/ha): 1.0
- AMBEL herbicidal rating ([10]; rate 0.0158 kg/ha): 6.0
- AMBEL herbicidal rating ([10]; rate 0.0315 kg/ha): 7.0
- AMBEL herbicidal rating ([10]; rate 0.0630 kg/ha): 7.0
- IPOHE herbicidal rating ([11]; rate 0.0158 kg/ha): 9.0
- IPOHE herbicidal rating ([11]; rate 0.0315 kg/ha): 9.0
- IPOHE herbicidal rating ([11]; rate 0.0630 kg/ha): 9.0
- Preemergence herbicidal rating ZEAMX ([12]; rate 0.0156 kg/ha): 0.0
- Preemergence herbicidal rating ZEAMX ([12]; rate 0.0313 kg/ha): 0.0
- Preemergence herbicidal rating ZEAMX ([12]; rate 0.0625 kg/ha): 1.0
- Preemergence herbicidal rating ZEAMX ([12]; rate 0.1250 kg/ha): 1.0
- Preemergence herbicidal rating ZEAMX ([12]; rate 0.2500 kg/ha): 1.0
- ABUTH herbicidal rating ([13]; rate 0.0158 kg/ha): 5.0
- ABUTH herbicidal rating ([13]; rate 0.0315 kg/ha): 9.0
- ABUTH herbicidal rating ([13]; rate 0.0630 kg/ha): 9.0
- GLXMAW herbicidal rating ([14]; rate 0.0158 kg/ha): 8.5
- GLXMAW herbicidal rating ([14]; rate 0.0315 kg/ha): 7.5
- GLXMAW herbicidal rating ([14]; rate 0.0630 kg/ha): 7.5
